# US20060040870A1, “Enhancement of apoptosis by caspase-9 inhibitors” (priority 2004, published 2006)
# The star is where a group is joined. Cbz = O=C(OCc1ccccc1)*; CH2F = FC*
# Columns and labels:
# [1] = tested on: CD19+ B-cell precursors; experiment: Annexin V staining of sorted cord blood-derived CD19+ B-cell precursors removed from MS-5 stroma; assay type: cell-based, human; details: cultured 18 hours, DMSO control 46.5 ± 1.4, Time 0 1.5
# Protocol: Normal B-lineage cells. CD19+ B-lineage cells were derived from CD34+ human cord blood stem cells plated on the murine stromal cell line MS-5 (Itoh Exp Hematol. 1989;17:145-153). MS-5 stromal cells were kindly provided by Dr. Paul Kincade (University of Oklahoma Medical Research Foundation), following permission from Professor K. John Mori (Niigata University, Japan). FACS-purified CD34+/CD38+/lineage—cord blood hematopoietic stem cells were plated onto confluent, non-irradiated MS-5 stromal cells in 96-well flat-bottom plates (200 cells/well) containing Minimal Essential Medium supplemented with 10% FBS. Stem cell factor and G-CSF were added at 10 ng/ml (twice weekly) to enhance the emergence of CD19+ B-lineage cells (Nishihara Eur J Immunol. 1998;28:855-864; Ohkawara Leukemia. 1998;12:764-771). […] Wells were then pooled, stained with PE-conjugated anti-CD 19 + propidium iodide (PI), and sorted on a FACSVantage (BD Immunocytometry Systems, San Jose, Calif.). Cord blood CD34+/CD38+/lineage—cells were provided by Valerie McCullar and Dr. Jeff Miller of the University of Minnesota Cancer Center in accordance with the University of Minnesota Institutional Review Board on Human Subjects.
# Flow cytometry. Quantitation of apoptotic events was conducted using a FACS Calibur (BD Immunocytometry Systems). […]
# [2] = tested on: BLIN-2 cells; experiment: Apoptosis by Annexin V staining and flow cytometry, BLIN-2; assay type: cell-based, human; details: BLIN-2, 50 μM, 18 hours
# Protocol: (§1) Flow cytometry. Quantitation of apoptotic events was conducted using a FACS Calibur (BD Immunocytometry Systems). All analyses were conducted on cells with lymphoid light scatter characteristics (i.e., low to medium forward scatter and low 90° side scatter).
# (§2) iii. Annexin V. FITC-labeled Annexin V (BD Pharmingen, San Diego, Calif.) was used to detect external phosphatidylserine residues appearing on the external surface of early apoptotic cells (Koopman Blood. 1994;84:1415-1420). Cells were stained according to the manufacturers recommendations.
# (§3) General experimental strategy. BLIN cell lines were removed from fibroblast monolayers, washed once and resuspended to 7.5×10^5/ml in X-VIVO 10. Two hundred μL of resuspended cells were added to 96-well flat-bottom microtiter plates (ISC Bioexpress, Kaysville, Vt.), followed by 0.5-1.0 μL of caspase inhibitors in DMSO. An identical volume of DMSO alone was added to separate wells as a vehicle control. This final DMSO concentration of 0.25-0.5% vol/vol had no adverse affect on any of the BLIN cell lines. At the indicated times the entire content of individual wells was harvested and stained in the fluorescent protocols described above.
# The inventors carried out experiments to test the influence of specific amino acid substitutions on the proapoptotic activity Z-LEHD-fmk. […]
# [3] = tested on: BLIN-3 cells; experiment: Apoptosis by Annexin V staining and flow cytometry, BLIN-3; assay type: cell-based, human
# Protocol: as §1, §2, §3
# The inventors carried out experiments to test the influence of specific amino acid substitutions on the proapoptotic activity Z-LEHD-fmk. Cells were cultured for 24 hours with various μM concentrations of Z-LEDH-fmk or single amino acid substitution of the parent peptide. All values in the following Table 3 represent the percentage of total Annexin V+ cells (PI+ and PI−) minus the percentage present in culture with DMSO alone (BLIN-2=3%; BLIN-3+7%; BLIN4L=5%).
# [4] = tested on: RAJI Burkitt lymphoma cell line; experiment: Apoptosis by Annexin V staining and flow cytometry, RAJI; assay type: cell-based; details: 50 μM, 18 hours
# Protocol: (§4) FIG. 4 is a pair of graphs showing the effect of […] on various cell lines, as determined by Annexin V staining and flow cytometry. The cells included the B-cell precursor ALL cell lines […], and NALM-6, the RAMOS, RAJI, and DAUDI Burkitt lymphoma cell lines, the CCRF-CEM, JURKAT, and H9 T lymphoma cell lines, the K-562 erythroleukemia cell line, and resting or activated (i.e., CD3/CD28 cross-linked) normal human T cells. […] Flow cytometry. Quantitation of apoptotic events was conducted using a FACS Calibur (BD Immunocytometry Systems). All analyses were conducted on cells with lymphoid light scatter characteristics (i.e., low to medium forward scatter and low 90° side scatter). iii. Annexin V. […] Cells were stained according to the manufacturers recommendations.
# [5] = tested on: H9 T lymphoma cell line; experiment: Apoptosis by Annexin V staining and flow cytometry, H9; assay type: cell-based; details: H9, 50 μM, 18 hours
# Protocol: as §4
# [6] = tested on: K-562 erythroleukemia cell line; experiment: Apoptosis by Annexin V staining and flow cytometry, K-562; assay type: cell-based; details: K-562, 50 μM, 18 hours
# Protocol: as §4
# [7] = tested on: activated (CD3/CD28 cross-linked) normal human T cells; experiment: Apoptosis by Annexin V staining and flow cytometry, activated normal T cells; assay type: cell-based; details: 50 μM, 18 hours
# Protocol: as §4
# [8] = tested on: JURKAT T lymphoma cells; experiment: Fas response of JURKAT T lymphoma cells; assay type: cell-based; details: 50 μM
# [9] = tested on: BLIN cell lines; experiment: Enhancement of apoptosis in BLIN cell lines (flow cytometry); assay type: cell-based, human
# Protocol: as §1
# i. Mitochondrial transmembrane potential (Δψm). The cationic lipophilic fluorescent dye tetramethylrhodamine, ethyl ester, perchlorate (TMRE) was purchased from Molecular Probes, Inc. (Eugene, Oreg.). TMRE has a high degree of membrane permeability and accumulates into mitochondria in accord with the Nernstian equation (Farkas Biophys J. 1989;56:1053-1069). Cells were washed once and re-suspended to 0.5-1.0×10^6/ml in X-VIVO 10. TMRE was added to a final concentration of 50 nM and the cells were incubated in the dark at 37° C. for 15 minutes. Cells were then washed 2× in PBS, resuspended in PBS containing 2 μg/ml of propidium iodide (PI), and immediately analyzed. The protonophore […] (50 μM, CCCP, Sigma) was used as a positive control to effect loss of Δψm in 100% of cells.
# ii. YO-PRO-1. The green fluorescent DNA intercalant dye YO-PRO-1 (Idziorek J Immunol Methods. 1995;185:249-258) was purchased from Molecular Probes as the Vybrant Apoptosis Assay Kit #4. Dual staining with YO-PRO and PI allows for the detection of early apoptotic cells (YO-PRO+/PI−) that have undergone initial changes in permeability to small molecules. Cells were stained according to the manufacturers recommendations.
# as §2, §3
substance,measurement,setting,value
Z-LEHD-fmk (Cbz-LEHD-CH2F; SMILES CC(C)C[C@H](NC(=O)OCc1ccccc1)C(=O)N[C@@H](CCC(=O)O)C(=O)N[C@@H](Cc1c[nH]cn1)C(=O)N[C@@H](CC(=O)O)C(=O)CF) [C9i],"percentage of total Annexin V+ cells (PI+ and PI−), mean ± SD",[1],56.0 ± 3.2 %
same,sensitivity (fold-increase in Annexin V+ cells vs DMSO),[2],less sensitive than the others
same,sensitivity (fold-increase in Annexin V+ cells vs DMSO),"[3]; BLIN-3, 50 μM, 18 hours",sensitive
same,apoptosis (Annexin V and TMRE staining) versus DMSO vehicle,"[3]; BLIN-3 removed from adherent fibroblasts, 50 μM, 2-hour time points up to 8 hours",pronounced enhancement of apoptosis
same,sensitivity (fold-increase in Annexin V+ cells vs DMSO),[4],insensitive
same,sensitivity (fold-increase in Annexin V+ cells vs DMSO),[5],insensitive
same,sensitivity (fold-increase in Annexin V+ cells vs DMSO),[6],insensitive
same,sensitivity (fold-increase in Annexin V+ cells vs DMSO),[7],marginally sensitive
same,Fas response of JURKAT T lymphoma cells,[8],blocked the Fas response
same,lowest concentration at which enhancement of apoptosis occurred,[9],6.25 µM
same,promotion of apoptosis in healthy cells,"[9]; BLIN-3 and BLIN-4L maintained on adherent fibroblasts and/or IL-7, 8 hours",did not promote apoptosis
same,promotion of apoptosis in healthy cells,"[9]; BLIN-3 and BLIN-4L maintained on adherent fibroblasts and/or IL-7, 18 hours",promoted apoptosis
